The source of these data is PMC7000730, “CAPA neuropeptides and their receptor form an anti-diuretic hormone signaling system in the human disease vector, Aedes aegypti” (Scientific Reports, 2020).

Entries after “also recorded” stand apart in the source; their conditions may differ. Structures can show the parent of a compound that is named as a salt. Where two headings read alike, the source gives them in different places. Non-standard residues stand in square brackets, D forms with d. Residues, ends and D or L forms follow the SMILES beside them. No end group written: not given here. pGlu = O=C1CC[C@@H](C(=O)O)N1 Bounds are passed on as bounds.

Test [1] concerns the target T1, A. aegypti CAPA receptor (CAPAr, anti-diuretic hormone receptor) (Aedes aegypti, UniProt A0A7D5D2Z2).
T1 sequence (A0A7D5D2Z2 1-712): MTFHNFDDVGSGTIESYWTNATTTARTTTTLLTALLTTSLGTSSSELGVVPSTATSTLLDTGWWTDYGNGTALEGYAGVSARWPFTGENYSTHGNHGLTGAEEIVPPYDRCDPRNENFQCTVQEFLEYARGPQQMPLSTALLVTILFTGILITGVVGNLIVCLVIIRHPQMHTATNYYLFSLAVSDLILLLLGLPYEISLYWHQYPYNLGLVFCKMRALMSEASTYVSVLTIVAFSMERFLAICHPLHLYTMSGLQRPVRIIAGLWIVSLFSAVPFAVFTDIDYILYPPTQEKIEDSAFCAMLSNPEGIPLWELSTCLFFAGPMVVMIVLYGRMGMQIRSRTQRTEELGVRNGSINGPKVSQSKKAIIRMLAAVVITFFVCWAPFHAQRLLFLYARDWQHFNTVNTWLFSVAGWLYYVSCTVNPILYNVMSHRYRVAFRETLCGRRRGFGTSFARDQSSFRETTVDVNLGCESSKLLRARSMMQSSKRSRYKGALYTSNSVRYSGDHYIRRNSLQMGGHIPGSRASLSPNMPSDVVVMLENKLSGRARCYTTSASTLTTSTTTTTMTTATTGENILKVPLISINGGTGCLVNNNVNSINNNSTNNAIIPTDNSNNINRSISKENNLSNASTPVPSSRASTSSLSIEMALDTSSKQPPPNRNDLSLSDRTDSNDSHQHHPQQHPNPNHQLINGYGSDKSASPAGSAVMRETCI
The experiment in a line: Heterologous receptor functional activation bioluminescence assay (CHO-K1 aequorin). It counts as cell-based. The following applies: for CAPAr activation (in words): calcium-based luminescence. Here is the method:
(B) Raw luminescent response following application of each CAPA gene-derived neuropeptide and representative neuropeptides belonging to several insect families, each tested at 10 μM. For peptide sequence information and species origin, see Table S3. […] Data represent the mean ± standard error (n = 3).
The open reading frame of the cloned A. aegypti CAPAr was inserted into pcDNA3.1+ mammalian expression vector following procedures described previously[60],[92],[93]. Using a recombinant CHO-K1 cell line stably expressing aequorin[59], A. aegypti CAPAr was transiently expressed following growth and transfection conditions as reported recently. Cells were harvested for the functional assay at 48 hours post-transfection by detaching cells from the culture flask using 5 mM EDTA in Dulbecco’s PBS (DPBS; Wisent Corp., St. Bruno, QC) and later cells were resuspended at a concentration of 10^6–10^7 cells/mL in assay media and incubated with coelenterazine h as described previously. Prior to running the functional assay, cells were diluted 10-fold in assay media and left to incubate for one additional hour. Several endogenous as well as other insect neuropeptides representing a variety of neuropeptide families (see Table S2) were tested by preparing serial dilutions of each peptide in assay media. All peptides were commercially synthesized at a purity of >90% (Genscript, Piscataway, NJ) and 1 mM stock solutions were prepared by dissolving 1 mg of each peptide in water or DMSO as appropriate based on specific peptide characteristics. Recombinant CHO-K1 cells expressing the A. aegypti CAPAr were loaded into each well of multi-well plate using an automated injector module linked to a Synergy 2 Multi Mode Microplate Reader (BioTek, Winooski, VT) which measured kinetic luminescent response from each well for 20 sec immediately following cell loading onto the different peptides at various doses. Data was compiled in Microsoft Excel and analyzed in GraphPad Prism 8.0 (GraphPad Software, San Diego, CA).
Table S2. List and primary structure of several insect neuropeptides tested for functional activation of the mosquito anti-diuretic hormone (CAPA) receptor using heterologous bioassay.

The test system of test [2] is isolated MTs of adult female A. aegypti (diuretic hormone-stimulated fluid secretion). The experiment in a line: Malpighian tubule fluid secretion assay (modified Ramsay assay). Also on record: species or system Aedes aegypti. The following applies: for effect of inhibitor on inhibition by AedaeCAPA-1 and cGMP, 5HT-stimulated MTs: 5HT 100 nmol l^-1, AedaeCAPA-1 1 fmol l^-1 or cGMP (8 bromo-cGMP) 100 nmol l^-1, L-NAME 2 µmol l^-1 or KT5823 5 µmol l^-1, 60 min. Here is the method: To further understand the anti-diuretic signaling pathway involving the CAPA neuroendocrine system, pharmacological blockers, including inhibitors of NOS (L-NAME) and PKG (KT5823), were tested against diuretic hormone-stimulated MTs alone and together with either AedaeCAPA-1 or cGMP.
Figure 5 Effect of a nitric oxide synthase (NOS) inhibitor (L-NAME) on the anti-diuretic activity of AedaeCAPA-1 and cGMP in DromeDH31-stimulated A. aegypti MTs. The NOS inhibitor, L-NAME, was applied against (A) DromeDH31- and (B) 5HT-stimulated MTs alone or in the presence of either AedaeCAPA-1 or cGMP. Secretion rates are presented as mean ± SEM, n = 17–22.
Figure 6 Effect of a protein kinase G (PKG) inhibitor (KT5823) on the anti-diuretic activity of AedaeCAPA-1 and cGMP in DromeDH31-stimulated A. aegypti MTs. The PKG inhibitor, KT5823, was applied against (A) DromeDH31- and (B) 5HT-stimulated MTs alone or in the presence of either AedaeCAPA-1 or cGMP. Secretion rates are presented as mean ± SEM, n = 16–25.
In order to determine fluid secretion rates, a modified Ramsay secretion assay[85] was performed on isolated MTs of 3–6 day old adult female A. aegypti, as reported recently. Tissue dissections were performed under physiological saline prepared as described previously[86] diluted 1:1 with Schneider’s Insect Medium (Sigma-Aldrich, Oakville, ON). Individual MTs were removed and transferred to a Sylgard-lined Petri dish containing 20 μl saline bathing droplets immersed in hydrated mineral oil to prevent evaporation. The proximal end of the MT was removed from the bathing saline and wrapped around a Minuten pin to allow for secretion measurements. Dosages of 25 nmol l^−1 DromeDH31[22] or 100 nmol l^−1 5HT[97],[98] alone or in combination with 1 fmol l^−1 AedaeCAPA-1[37] were applied to the isolated MTs as previously described. […] To investigate the effects of the pharmacological blockers, a nitric oxide synthase (NOS) inhibitor, Nω-Nitro-L-arginine methyl ester hydrochloride (L-NAME), and protein kinase G (PKG) inhibitor, KT5823, were used against 5-HT- and DH31-stimulated MTs. Dosages of 2 µmol l^−1 L-NAME (manufacturer’s recommended dose) and 5 µmol l^−1 KT5823[36] were applied to the MTs. The inhibitors were treated in conjunction with 1 fmol l^−1 AedaeCAPA-1 and/or 100 nmol l^−1 cyclic guanosine monophosphate, 8 bromo-cGMP (cGMP)[37] (Sigma-Aldrich, Oakville, ON, Canada). Unstimulated controls consisted of tubules bathed in physiological saline with no diuretic application. Following a 60-minute incubation period, the size of the secreted droplet was measured using an eyepiece micrometer and fluid secretion rate (FSR) was calculated as described previously. […]

For test [3] the test system is unchanged. The following applies: ref [37]; cited from earlier work. The source says: The influx of Ca^2+ through these channels activates NOS, causing the production of NO, which subsequently activates guanylate cyclase to increase levels of cGMP in the MTs[44]. Ultimately, the activation of the NO/cGMP pathway stimulates the apical V-type H^+-A ...
[4] abbreviates: CHO-K1 cells stably expressing aequorin, A. aegypti CAPAr transiently expressed (48 h post-transfection), coelenterazine h, kinetic luminescence for 20 sec, dose-response, n = 3, read-out: EC50 on CAPAr.
Where [5] appears, read: n = 17–22 (L-NAME), 16–25 (KT5823).
The mark [6] stands for this setting: CHO-K1-aequorin cells expressing CAPAr, luminescence, tested up to 10 μM, read-out: EC50 on CAPAr (NA = no detectable activity).

Take `CC(C)C[C@H](NC(=O)CNC(=O)[C@@H]1CCC(=O)N1)C(=O)N[C@H](C(=O)N1CCC[C@H]1C(=O)N[C@@H](Cc1ccccc1)C(=O)N1CCC[C@H]1C(=O)N[C@@H](CCCNC(=N)N)C(=O)N[C@H](C(N)=O)C(C)C)C(C)C` [CAPA2] ([pGlu]GLVPFPRV-NH2): in test [1] (CHO-K1-aequorin cells expressing CAPAr), the “CAPAr activation (in words)” value is recorded as “potently activate this receptor”. The EC50 in test [1] (setting [4]) was determined as 0.00562 µM. Besides, the “raw luminescent response at 10 μM (in words)” value in test [1] (each peptide at 10 μM, vs BSA vehicle control, one-way ANOVA, Tukey, p < 0.01, n = 3) was “no difference in response was observed between the two endogenous CAPA neuropeptides”.
In the case of `COC(=O)[C@@]1(OC)C[C@H]2O[C@]1(C)n1c3ccccc3c3c4c(c5c6ccccc6n2c5c31)C(=O)N(C)C4` [KT5823], the “effect of inhibitor on inhibition by AedaeCAPA-1 and cGMP, 5HT-stimulated MTs” value in test [2] (setting [5]) is “the inhibitory activity of AedaeCAPA-1 and cGMP on 5HT-stimulated tubules was abolished”. For the same compound, in test [2] (AedaeCAPA-1 1 fmol l^-1 or cGMP 100 nmol l^-1, KT5823 5 µmol l^-1, 60 min), the “effect of inhibitor on inhibition of both DH31- and 5HT-stimulated diuresis” value is “the inhibition of both DH31- and 5HT stimulated diuresis by AedaeCAPA-1 and cGMP were sensitive to the PKG inhibitor, KT5823”. For the same compound, the “effect of inhibitor on inhibition by both AedaeCAPA-1 and cGMP, DH31-stimulated MTs” value in test [2] (DromeDH31 25 nmol l^-1, AedaeCAPA-1 1 fmol l^-1 or cGMP (8 bromo-cGMP) 100 nmol l^-1, KT5823 5 µmol l^-1, 60 min, n = 16–25) is “abolished the inhibitory effect of both cGMP and AedaeCAPA-1; also recorded: abolished the anti-diuretic activity of both AedaeCAPA-1 and cGMP, resulting in normal DH31-induced diuresis”.
For the compound `COC(=O)[C@@H](N)CCCNC(N)=N[N+](=O)[O-]` [L-NAME, Nω-Nitro-L-arginine methyl ester hydrochloride], in test [2] (setting [5]), the “effect of inhibitor on inhibition by AedaeCAPA-1 and cGMP, 5HT-stimulated MTs” value is on record as “neither AedaeCAPA-1 nor cGMP inhibition are influenced by L-NAME; also recorded: L-NAME had no influence on the anti-diuretic activity of AedaeCAPA-1 in 5HT-stimulated MTs”. Further, the “effect of inhibitor on inhibition by AedaeCAPA-1, DH31-stimulated MTs” value in test [2] (DromeDH31 25 nmol l^-1, AedaeCAPA-1 1 fmol l^-1, L-NAME 2 µmol l^-1 or KT5823 5 µmol l^-1, 60 min, n = 17–22 (L-NAME), 16–25 (KT5823)) is given as “the inhibitory effect of AedaeCAPA-1 was abolished; also recorded: AedaeCAPA-1 mediated inhibition of DH31-stimulated MTs was mitigated in the presence of L-NAME, reducing the anti-diuretic effects observed with AedaeCAPA-1”. Besides, the “effect of inhibitor on inhibition by cGMP, DH31-stimulated MTs” value in test [2] (DromeDH31 25 nmol l^-1, cGMP (8 bromo-cGMP) 100 nmol l^-1, L-NAME 2 µmol l^-1 or KT5823 5 µmol l^-1, 60 min, n = 17–22 (L-NAME), 16–25 (KT5823)) is given as “no influence on the inhibitory effect of cGMP; also recorded: did not alter the inhibitory effects of exogenous cGMP”.
With `Nc1nc2c(nc(Br)n2[C@@H]2O[C@@H]3COP(=O)(O)O[C@H]3[C@H]2O)c(=O)[nH]1` [cGMP, cyclic guanosine monophosphate, 8 bromo-cGMP], the “inhibition of fluid secretion rate (earlier work)” value in test [3] is “considerably inhibits fluid secretion rate”.
In the case of AGNSGANSGMWFGPRL-NH2 [PK1], the “luminescent response as activity compared to either CAPA peptide” value in test [1] (10 μM (saturating dose), n = 3) is ~ 20%. Also, the “potency compared to the canonical CAPA ligands” value in test [1] (CAPAr in CHO-K1-aequorin cells) is recorded as “over five orders of magnitude lower compared to the canonical CAPA ligands”. The “CAPAr activation (in words)” value in test [1] (CHO-K1-aequorin cells expressing CAPAr, listed as Aedae-PK1) was “low agonist activity”; in test [1] (CHO-K1-aequorin cells expressing CAPAr, listed as pyrokinin 1-related peptide), “very poor activity compared to the two CAPA peptides”; in test [1] (CHO-K1-aequorin cells expressing CAPAr, listed as pyrokinin-1) it was “a significantly higher concentration of pyrokinin-1 was needed to achieve even low level CAPAr activation”. Moreover, the EC50 in test [1] (CHO-K1 cells stably expressing aequorin, A. aegypti CAPAr transiently expressed (48 h post-transfection), coelenterazine h, kinetic luminescence for 20 sec, tested up to 10 μM, read-out: EC50 on CAPAr) was greater than 10 µM.
With AWNSLHGGW-NH2 [MIP-7], the EC50 in test [1] (setting [6]) was greater than 10 µM.
As for GPTVGLFAFPRV-NH2 [CAPA1], the EC50 in test [1] (setting [4]) was determined as 0.00676 µM.
Take GYRKPPFNGSIF-NH2 [SIFa]: the EC50 in test [1] (setting [6]) was greater than 10 µM.
On the same count and under the same terms, next, KAVRSPSLRLRF-NH2 [sNPF]: greater than 10 µM; NSVVLGKKQRFHSWG-NH2 [kinin]: greater than 10 µM; NTVNFSPRL-NH2 [PK2-1]: greater than 10 µM.
On the same count and under the same terms, under SALDKNFMRF-NH2 [FMRFa-1] stands greater than 10 µM; under SPPFAPRL-NH2 [PK2-2], greater than 10 µM.

As a reminder, the EC50 is the midpoint of the concentration-response curve.
